# In patent publication US20150307938A1, “METHOD TO IDENTIFY A NOVEL CLASS OF IMMUNOLOGIC ADJUVANTS” (Lancell, L.L.C., priority 2011, published 2015):
# System: skin
# Assay: Affymetrix microarray of skin, DBP-4 hr and analogs vs. untreated; gene selection by log-2 fold change, Wilcoxon, Kendall tau (Tables 8, 9)
# Format: in vivo, mouse
smiles,measurement,setting,value
CC(C)=O [Acetone],Log2 Expression Level,gene #1 of Table 8,5.63
same,Log2 Expression Level,gene #2 of Table 8,7.13
same,Log2 Expression Level,gene #3 of Table 8,8.73
same,Log2 Expression Level,gene #4 of Table 8,8.73
same,Log2 Expression Level,gene #5 of Table 8,6.36
same,Log2 Expression Level,gene #6 of Table 8,5.62
same,Log2 Expression Level,gene #7 of Table 8,5.07
same,Log2 Expression Level,gene #8 of Table 8,5.62
same,Log2 Expression Level,gene #9 of Table 8,5.62
same,Log2 Expression Level,gene #10 of Table 8,5.62
same,Log2 Expression Level,gene #11 of Table 8,5.07
same,Log2 Expression Level,gene #12 of Table 8,5.07
same,Log2 Expression Level,gene #13 of Table 8,5.07
same,Log2 Expression Level,gene #14 of Table 8,4.90
same,Log2 Expression Level,gene #15 of Table 8,4.90
same,Log2 Expression Level,gene #16 of Table 8,6.15
same,Log2 Expression Level,gene #17 of Table 8,8.79
same,Log2 Expression Level,gene #18 of Table 8,8.79
same,Log2 Expression Level,gene #19 of Table 8,8.22
same,Log2 Expression Level,gene #20 of Table 8,7.12
same,Log2 Expression Level,gene #21 of Table 8,7.81
same,Log2 Expression Level,gene #22 of Table 8,7.76
same,Log2 Expression Level,gene #23 of Table 8,5.76
same,Log2 Expression Level,gene #24 of Table 8,6.97
same,Log2 Expression Level,gene #25 of Table 8,6.97
same,Log2 Expression Level,gene #26 of Table 8,6.97
same,Log2 Expression Level,gene #27 of Table 8,6.97
same,Log2 Expression Level,gene #28 of Table 8,6.97
same,Log2 Expression Level,gene #29 of Table 8,4.96
same,Log2 Expression Level,gene #30 of Table 8,8.52
same,Log2 Expression Level,gene #31 of Table 8,8.52
same,Log2 Expression Level,gene #32 of Table 8,8.52
same,Log2 Expression Level,gene #33 of Table 8,5.65
same,Log2 Expression Level,gene #34 of Table 8,6.46
same,Log2 Expression Level,gene #35 of Table 8,6.46
same,Log2 Expression Level,gene #36 of Table 8,8.73
same,Log2 Expression Level,gene #37 of Table 8,8.73
same,Log2 Expression Level,gene #38 of Table 8,8.73
same,Log2 Expression Level,gene #39 of Table 8,7.16
same,Log2 Expression Level,gene #40 of Table 8,7.23
same,Log2 Expression Level,gene #41 of Table 8,7.42
same,Log2 Expression Level,gene #42 of Table 8,7.03
same,Log2 Expression Level,gene #43 of Table 8,7.03
same,Log2 Expression Level,gene #44 of Table 8,7.42
same,Log2 Expression Level,gene #45 of Table 8,7.03
same,Log2 Expression Level,gene #46 of Table 8,7.42
same,Log2 Expression Level,gene #47 of Table 8,7.47
same,Log2 Expression Level,gene #48 of Table 8,7.47
same,Log2 Expression Level,gene #49 of Table 8,7.47
same,Log2 Expression Level,gene #50 of Table 8,7.97
same,Log2 Expression Level,gene #51 of Table 8,7.28
same,Log2 Expression Level,gene #52 of Table 8,9.55
same,Log2 Expression Level,gene #53 of Table 8,7.74
same,Log2 Expression Level,gene #54 of Table 8,9.23
same,Log2 Expression Level,gene #55 of Table 8,6.67
same,Log2 Expression Level,gene #56 of Table 8,8.58
same,Log2 Expression Level,gene #57 of Table 8,8.52
same,Log2 Expression Level,gene #58 of Table 8,8.50
same,Log2 Expression Level,gene #59 of Table 8,8.28
same,Log2 Expression Level,gene #60 of Table 8,6.59
same,Log2 Expression Level,gene #61 of Table 8,11.19
same,Log2 Expression Level,gene #62 of Table 8,7.64
same,Log2 Expression Level,gene #63 of Table 8,10.28
same,Log2 Expression Level,gene #64 of Table 8,10.06
same,Log2 Expression Level,gene #65 of Table 8,6.46
same,Log2 Expression Level,gene #66 of Table 8,7.87
same,Log2 Expression Level,gene #67 of Table 8,4.12
same,Log2 Expression Level,gene #68 of Table 8,6.73
same,Log2 Expression Level,gene #69 of Table 8,4.99
same,Log2 Expression Level,gene #70 of Table 8,4.18
same,Log2 Expression Level,gene #71 of Table 8,6.68
same,Log2 Expression Level,gene #72 of Table 8,7.93
same,Log2 Expression Level,gene #73 of Table 8,5.55
same,Log2 Expression Level,gene #74 of Table 8,7.00
same,Log2 Expression Level,gene #75 of Table 8,8.22
same,Log2 Expression Level,gene #76 of Table 8,4.30
same,Log2 Expression Level,gene #77 of Table 8,8.48
same,Log2 Expression Level,gene #78 of Table 8,9.31
same,Log2 Expression Level,gene #79 of Table 8,6.49
same,Log2 Expression Level,gene #80 of Table 8,12.42
same,Log2 Expression Level,gene #81 of Table 8,5.50
same,Log2 Expression Level,gene #82 of Table 8,5.03
same,Log2 Expression Level,gene #83 of Table 8,6.32
same,Log2 Expression Level,gene #84 of Table 8,6.04
same,Log2 Expression Level,gene #85 of Table 8,4.71
same,Log2 Expression Level,gene #86 of Table 8,6.08
same,Log2 Expression Level,gene #87 of Table 8,8.85
same,Log2 Expression Level,gene #88 of Table 8,4.54
same,Log2 Expression Level,gene #89 of Table 8,5.23
same,Log2 Expression Level,gene #90 of Table 8,9.45
same,Log2 Expression Level,gene #91 of Table 8,6.14
same,Log2 Expression Level,gene #92 of Table 8,6.80
same,Log2 Expression Level,gene #93 of Table 8,8.25
same,Log2 Expression Level,gene #94 of Table 8,7.10
same,Log2 Expression Level,gene #95 of Table 8,4.96
same,Log2 Expression Level,gene #96 of Table 8,6.62
same,Log2 Expression Level,gene #97 of Table 8,5.16
same,Log2 Expression Level,gene #98 of Table 8,4.29
same,Log2 Expression Level,gene #99 of Table 8,8.55
same,Log2 Expression Level,gene #100 of Table 8,6.49
"CCOC(=O)c1ccccc1C(=O)OCC [DEP, diethylphthalate]",Log2 Expression Level,gene #1 of Table 8,5.52
same,Log2 Expression Level,gene #2 of Table 8,7.18
same,Log2 Expression Level,gene #3 of Table 8,8.98
same,Log2 Expression Level,gene #4 of Table 8,8.98
same,Log2 Expression Level,gene #5 of Table 8,6.10
same,Log2 Expression Level,gene #6 of Table 8,7.14
same,Log2 Expression Level,gene #7 of Table 8,6.55
same,Log2 Expression Level,gene #8 of Table 8,7.14
same,Log2 Expression Level,gene #9 of Table 8,7.14
same,Log2 Expression Level,gene #10 of Table 8,7.14
same,Log2 Expression Level,gene #11 of Table 8,6.55
same,Log2 Expression Level,gene #12 of Table 8,6.55
same,Log2 Expression Level,gene #13 of Table 8,6.55
same,Log2 Expression Level,gene #14 of Table 8,4.71
same,Log2 Expression Level,gene #15 of Table 8,4.71
same,Log2 Expression Level,gene #16 of Table 8,7.54
same,Log2 Expression Level,gene #17 of Table 8,9.32
same,Log2 Expression Level,gene #18 of Table 8,9.32
same,Log2 Expression Level,gene #19 of Table 8,8.41
same,Log2 Expression Level,gene #20 of Table 8,8.85
same,Log2 Expression Level,gene #21 of Table 8,8.77
same,Log2 Expression Level,gene #22 of Table 8,5.30
same,Log2 Expression Level,gene #23 of Table 8,6.03
same,Log2 Expression Level,gene #24 of Table 8,7.92
same,Log2 Expression Level,gene #25 of Table 8,7.92
same,Log2 Expression Level,gene #26 of Table 8,7.51
same,Log2 Expression Level,gene #27 of Table 8,7.51
same,Log2 Expression Level,gene #28 of Table 8,7.51
same,Log2 Expression Level,gene #29 of Table 8,5.79
same,Log2 Expression Level,gene #30 of Table 8,8.76
same,Log2 Expression Level,gene #31 of Table 8,8.76
same,Log2 Expression Level,gene #32 of Table 8,8.76
same,Log2 Expression Level,gene #33 of Table 8,5.34
same,Log2 Expression Level,gene #34 of Table 8,6.85
same,Log2 Expression Level,gene #35 of Table 8,6.85
same,Log2 Expression Level,gene #36 of Table 8,8.98
same,Log2 Expression Level,gene #37 of Table 8,8.98
same,Log2 Expression Level,gene #38 of Table 8,8.98
same,Log2 Expression Level,gene #39 of Table 8,7.28
same,Log2 Expression Level,gene #40 of Table 8,7.39
same,Log2 Expression Level,gene #41 of Table 8,7.54
same,Log2 Expression Level,gene #42 of Table 8,7.18
same,Log2 Expression Level,gene #43 of Table 8,7.18
same,Log2 Expression Level,gene #44 of Table 8,7.54
same,Log2 Expression Level,gene #45 of Table 8,7.18
same,Log2 Expression Level,gene #46 of Table 8,7.54
same,Log2 Expression Level,gene #47 of Table 8,8.45
same,Log2 Expression Level,gene #48 of Table 8,8.45
same,Log2 Expression Level,gene #49 of Table 8,8.45
same,Log2 Expression Level,gene #50 of Table 8,9.67
same,Log2 Expression Level,gene #51 of Table 8,7.95
same,Log2 Expression Level,gene #52 of Table 8,9.60
same,Log2 Expression Level,gene #53 of Table 8,8.70
same,Log2 Expression Level,gene #54 of Table 8,10.81
same,Log2 Expression Level,gene #55 of Table 8,6.30
same,Log2 Expression Level,gene #56 of Table 8,9.40
same,Log2 Expression Level,gene #57 of Table 8,8.76
same,Log2 Expression Level,gene #58 of Table 8,8.74
same,Log2 Expression Level,gene #59 of Table 8,7.93
same,Log2 Expression Level,gene #60 of Table 8,7.26
same,Log2 Expression Level,gene #61 of Table 8,12.58
same,Log2 Expression Level,gene #62 of Table 8,7.63
same,Log2 Expression Level,gene #63 of Table 8,10.52
same,Log2 Expression Level,gene #64 of Table 8,11.04
same,Log2 Expression Level,gene #65 of Table 8,6.97
same,Log2 Expression Level,gene #66 of Table 8,7.90
same,Log2 Expression Level,gene #67 of Table 8,4.52
same,Log2 Expression Level,gene #68 of Table 8,8.29
same,Log2 Expression Level,gene #69 of Table 8,5.13
same,Log2 Expression Level,gene #70 of Table 8,4.38
same,Log2 Expression Level,gene #71 of Table 8,7.95
same,Log2 Expression Level,gene #72 of Table 8,7.61
same,Log2 Expression Level,gene #73 of Table 8,6.09
same,Log2 Expression Level,gene #74 of Table 8,7.13
same,Log2 Expression Level,gene #75 of Table 8,8.41
same,Log2 Expression Level,gene #76 of Table 8,4.13
same,Log2 Expression Level,gene #77 of Table 8,9.75
same,Log2 Expression Level,gene #78 of Table 8,10.71
same,Log2 Expression Level,gene #79 of Table 8,6.51
same,Log2 Expression Level,gene #80 of Table 8,12.79
same,Log2 Expression Level,gene #81 of Table 8,5.69
same,Log2 Expression Level,gene #82 of Table 8,4.90
same,Log2 Expression Level,gene #83 of Table 8,7.87
same,Log2 Expression Level,gene #84 of Table 8,7.51
same,Log2 Expression Level,gene #85 of Table 8,4.61
same,Log2 Expression Level,gene #86 of Table 8,6.60
same,Log2 Expression Level,gene #87 of Table 8,7.01
same,Log2 Expression Level,gene #88 of Table 8,5.04
same,Log2 Expression Level,gene #89 of Table 8,5.15
same,Log2 Expression Level,gene #90 of Table 8,10.08
same,Log2 Expression Level,gene #91 of Table 8,6.27
same,Log2 Expression Level,gene #92 of Table 8,7.41
same,Log2 Expression Level,gene #93 of Table 8,8.87
same,Log2 Expression Level,gene #94 of Table 8,7.83
same,Log2 Expression Level,gene #95 of Table 8,5.79
same,Log2 Expression Level,gene #96 of Table 8,6.84
same,Log2 Expression Level,gene #97 of Table 8,5.27
same,Log2 Expression Level,gene #98 of Table 8,5.94
same,Log2 Expression Level,gene #99 of Table 8,9.42
same,Log2 Expression Level,gene #100 of Table 8,7.53
